{"source": "ChEMBL document CHEMBL5260828", "about": "“Amphiphilic glycoconjugates as potential anti-cancer chemotherapeutics” (Eur J Med Chem, 2018)", "key": {"N2a": {"test_system": "N2a", "assay": "Antimitotic activity against mouse Neuro2a cells assessed as inhibition of cell proliferation by measuring inhibitory dose by [3H]-thymidine incorporation based […]", "type": "functional", "conditions": "read-out: ID50 (the source's name)"}, "[1]": {"assay": "Antimitotic activity against rat Astrocytoma cell assessed as inhibition of cell proliferation by measuring inhibitory dose by [3H]-thymidine incorporation based […]", "type": "functional", "conditions": "read-out: ID50 (the source's name)"}, "[2]": {"assay": "Antimitotic activity against rat RN 22 cells assessed as inhibition of cell proliferation by measuring inhibitory dose by [3H]-thymidine incorporation based […]", "type": "functional", "conditions": "read-out: ID50 (the source's name)"}, "[3]": {"assay": "Antimitotic activity against rat Astrocyte cells assessed as inhibition of cell proliferation by measuring inhibitory dose by [3H]-thymidine incorporation based […]", "type": "functional", "conditions": "read-out: ID50 (the source's name)"}, "MCF7 [4]": {"test_system": "MCF7", "assay": "Antiproliferative activity against human MCF7 cells assessed as inhibition of cell proliferation", "type": "functional, cell-based"}, "HCT-116": {"test_system": "HCT-116", "assay": "Antiproliferative activity against human HCT-116 cells assessed as inhibition of cell proliferation", "type": "functional, cell-based"}, "CCRF S-180 [5]": {"test_system": "CCRF S-180", "assay": "Antitumor activity against mouse CCRF S-180 cells implanted in Kunming mouse assessed as inhibition of tumor growth at 2 mg/kg,ip administered for 9 consecutive days", "type": "functional"}, "CCRF S-180 [6]": {"test_system": "CCRF S-180", "assay": "Antitumor activity against mouse CCRF S-180 cells implanted in Kunming mouse assessed as inhibition of tumor growth at 4 mg/kg,ip administered for 9 consecutive days", "type": "functional"}, "CCRF S-180 [7]": {"test_system": "CCRF S-180", "assay": "Antitumor activity against mouse CCRF S-180 cells implanted in Kunming mouse assessed as inhibition of tumor growth at 1 mg/kg,ip administered for 9 consecutive days", "type": "functional"}, "A549": {"test_system": "A549", "assay": "Cytotoxicity against human A549 cells assessed as inhibition of cell proliferation by MTT colorimetric assay", "type": "functional, cell-based"}, "HSC-2": {"test_system": "HSC-2", "assay": "Cytotoxicity against human HSC-2 cells assessed as inhibition of cell proliferation by MTT colorimetric assay", "type": "functional, cell-based"}, "MDA-MB-231 [8]": {"test_system": "MDA-MB-231", "assay": "Cytotoxicity against human MDA-MB-231 cells assessed as inhibition of cell proliferation by MTT colorimetric assay", "type": "functional, cell-based"}, "Ca9-22": {"test_system": "Ca9-22", "assay": "Cytotoxicity against human Ca9-22 cells assessed as inhibition of cell proliferation by MTT colorimetric assay", "type": "functional, cell-based"}, "MDA-MB-435": {"test_system": "MDA-MB-435", "assay": "Inhibition of cell migration in human MDA-MB-435 cells incubated for 24 hrs by hematoxylin staining based assay", "type": "functional", "conditions": "MDA-MB-435, 24 h"}, "[9]": {"assay": "Cytotoxicity against mouse NIH/3T3 cells assessed as cell growth inhibition by alamar blue assay", "type": "toxicity, cell-based, NIH3T3"}, "MCF7 [10]": {"test_system": "MCF7", "assay": "Cytotoxicity against human MCF7 cells assessed as cell growth inhibition by MTT assay", "type": "functional, cell-based"}, "MCF-10A [11]": {"test_system": "MCF-10A", "assay": "Cytotoxicity against human MCF-10A cells assessed as cell growth inhibition by alamar blue assay", "type": "functional, cell-based"}, "Jurkat": {"test_system": "Jurkat", "assay": "Cytotoxicity against human Jurkat cells assessed as cell growth inhibition by alamar blue assay", "type": "functional, cell-based"}, "MDA-MB-231 [12]": {"test_system": "MDA-MB-231", "assay": "Cytotoxicity against human MDA-MB-231 cells assessed as cell growth inhibition by alamar blue assay", "type": "functional, cell-based"}, "HeLa": {"test_system": "HeLa", "assay": "Cytotoxicity against human HeLa cells assessed as cell growth inhibition by alamar blue assay", "type": "functional, cell-based"}, "U-937": {"test_system": "U-937", "assay": "Cytotoxicity against human U-937 cells assessed as cell growth inhibition by alamar blue assay", "type": "functional, cell-based"}, "MCF7 [13]": {"test_system": "MCF7", "assay": "Antiproliferative activity against human MCF7 cells assessed as inhibition of cell growth incubated for 48 hrs", "type": "functional, cell-based", "conditions": "MCF7, 48 h, pooled result: one value given for 9 cell lines, strains, targets or settings"}, "BT-474": {"test_system": "BT-474", "assay": "Cytotoxicity against human BT-474 cells assessed as reduction in cell viability incubated for 48 hrs by MTS assay", "type": "functional, cell-based", "conditions": "BT-474, time 48 hrs"}, "DU-145": {"test_system": "DU-145", "assay": "Cytotoxicity against human DU-145 cells assessed as reduction in cell viability incubated for 48 hrs by MTS assay", "type": "functional, cell-based", "conditions": "DU-145, time 48 hrs"}, "MIA PaCa-2": {"test_system": "MIA PaCa-2", "assay": "Cytotoxicity against human MIA PaCa-2 cells assessed as reduction in cell viability incubated for 48 hrs by MTS assay", "type": "functional, cell-based", "conditions": "MIA PaCa-2, time 48 hrs"}, "JIMT-1": {"test_system": "JIMT-1", "assay": "Cytotoxicity against human JIMT-1 cells assessed as reduction in cell viability incubated for 48 hrs by MTS assay", "type": "functional, cell-based", "conditions": "JIMT-1, time 48 hrs"}, "T-24 [14]": {"test_system": "T-24", "assay": "Cytotoxicity against human T24 cells assessed as cell viability", "type": "functional"}, "MKN-45": {"test_system": "MKN-45", "assay": "Cytotoxicity against human MKN-45 cells", "type": "functional, cell-based"}, "[15]": {"assay": "Cytotoxicity against human HEK293F cells", "type": "toxicity, cell-based"}, "MOLT-4": {"test_system": "MOLT-4", "assay": "Cytotoxicity against human MOLT-4 cells", "type": "functional, cell-based"}, "T-24 [16]": {"test_system": "T-24", "assay": "Cytotoxicity against human T24 cells assessed as cell viability at 12.5 uM in presence of doxorubicin", "type": "functional", "conditions": "read-out: Activity"}, "MCF-10A [17]": {"test_system": "MCF-10A", "assay": "Cytotoxicity against human MCF-10A cells assessed as cell growth inhibition incubated for 3 days by MTT assay", "type": "functional, cell-based", "conditions": "72 h"}, "[18]": {"assay": "Cytotoxicity against mouse NIH/3T3 cells assessed as cell growth inhibition incubated for 3 days by MTT assay", "type": "toxicity, cell-based, NIH3T3"}}}
{"molecule": "CO[C@@H]1O[C@H](CO)[C@@H](O[C@@H]2O[C@H](CO)[C@H](O)[C@H](O[C@H]3O[C@H](CO)[C@H](O)[C@H](O)[C@H]3NC(C)=O)[C@H]2O)[C@H](O[C@@H]2O[C@@H](C)[C@@H](O)[C@@H](O)[C@@H]2O)[C@H]1O", "values": [{"measurement": "IC50", "setting": "N2a", "value": 24, "unit": "µM"}, {"measurement": "IC50", "setting": "[1]", "value": 24, "unit": "µM"}, {"measurement": "IC50", "setting": "[2]", "value": 24, "unit": "µM"}, {"measurement": "IC50", "setting": "[3]", "value": 24, "unit": "µM"}]}
{"molecule": "CCC/C=C\\C[C@@H](O[C@H](/C=C/[C@@H](C/C=C\\CCCC(=O)OC)OC[C@H]1O[C@@H](OC[C@H](O)CO)[C@H](O)[C@@H](O)[C@@H]1O)[C@H](O)C/C=C\\CCCCC)[C@H](O)/C=C/[C@@H](O)CCCCC(=O)OC", "values": [{"measurement": "IC50", "setting": "MCF7 [4]", "value": 0.003, "unit": "µM"}, {"measurement": "IC50", "setting": "HCT-116", "value": 0.003, "unit": "µM"}]}
{"molecule": "CCCCCCCCCCCCCO[C@@H]1O[C@H](CO[C@@H]2O[C@H](CO)[C@@H](O[C@@H]3O[C@H](CO[C@@H]4O[C@H](CO)[C@@H](O)[C@H](O)[C@H]4O)[C@@H](O)[C@H](O[C@@H]4O[C@H](CO)[C@@H](O)[C@H](O)[C@H]4O)[C@H]3O)[C@H](O)[C@H]2O)[C@@H](O)[C@H](O[C@@H]2O[C@H](CO)[C@@H](O[C@@H]3O[C@H](CO)[C@H](O)[C@H](O)[C@H]3O)[C@H](O)[C@H]2O)[C@H]1O", "values": [{"measurement": "inhibition in vivo at 2 mg/kg", "setting": "CCRF S-180 [5]", "value": 39.9, "unit": "%"}, {"measurement": "inhibition in vivo at 4 mg/kg", "setting": "CCRF S-180 [6]", "value": 37.9, "unit": "%"}, {"measurement": "inhibition in vivo at 1 mg/kg", "setting": "CCRF S-180 [7]", "value": 39.1, "unit": "%"}]}
{"molecule": "C=CCCCC[C@@H](C)O[C@@H]1O[C@@H](C)[C@H](OC(=O)C[C@H]2C[C@@H]3O[C@]4(C)CC[C@H]5[C@H](C)CC[C@@H]([C@H]2C)[C@@]35OO4)C[C@H]1O", "values": [{"measurement": "IC50", "setting": "A549", "value": 15.1, "unit": "µM"}, {"measurement": "IC50", "setting": "HSC-2", "value": 15.1, "unit": "µM"}, {"measurement": "IC50", "setting": "MDA-MB-231 [8]", "value": 15.1, "unit": "µM"}, {"measurement": "IC50", "setting": "Ca9-22", "value": 15.1, "unit": "µM"}]}
{"molecule": "CCCCCCCCCCCCCCCCOCC(COC1O[C@H](CO)[C@@H](O[C@@H]2O[C@H](CO)[C@H](O)[C@H](O)[C@H]2O)[C@H](O)[C@H]1O)OC", "note": "(stereo partly drawn)", "values": [{"measurement": "IC50", "setting": "MDA-MB-435", "value": 0.3, "unit": "µM"}]}
{"molecule": "C/C=C(\\C)C(=O)O[C@@H]1[C@@H](O)[C@H](O[C@H]2[C@H](O[C@H](CCC)CCCCC)O[C@H](C)[C@H](OC(C)=O)[C@@H]2O)O[C@H](COC(=O)CCC(=O)CCC)[C@H]1OC(=O)/C=C/c1ccccc1", "values": [{"measurement": "IC50", "setting": "[9]", "value": 0.0207, "unit": "µM"}, {"measurement": "IC50", "setting": "MCF7 [10]", "value": 0.0782, "unit": "µM"}, {"measurement": "IC50", "setting": "MCF-10A [11]", "value": 0.0118, "unit": "µM"}, {"measurement": "IC50", "setting": "Jurkat", "value": 0.0225, "unit": "µM"}, {"measurement": "IC50", "setting": "MDA-MB-231 [12]", "value": 0.0188, "unit": "µM"}, {"measurement": "IC50", "setting": "HeLa", "value": 0.03, "unit": "µM"}, {"measurement": "IC50", "setting": "U-937", "value": 0.0171, "unit": "µM"}]}
{"molecule": "CCCCCCCCCCCCCCCCOC[C@H](CO[C@@H]1O[C@H](CO)[C@@H](O)[C@H](O)[C@H]1N)OC", "values": [{"measurement": "IC50", "setting": "MCF7 [13]", "value": 4.1, "unit": "µM"}, {"measurement": "CC50", "setting": "BT-474", "value": 8, "unit": "µM"}, {"measurement": "CC50", "setting": "DU-145", "value": 10, "unit": "µM"}, {"measurement": "CC50", "setting": "MIA PaCa-2", "value": 9, "unit": "µM"}, {"measurement": "CC50", "setting": "JIMT-1", "value": 9, "unit": "µM"}]}
{"molecule": "CCCCCCCC(=O)O[C@H]1[C@H](OC[C@H](O)[C@@H](O)[C@@H](O)[C@H](O)[C@H](O)CO)O[C@H](COC(=O)CCCCC)[C@@H](OC(=O)CCCCC)[C@@H]1OC(=O)CCCCC", "values": [{"measurement": "Activity", "setting": "T-24 [14]", "value": 57.3, "unit": "%"}, {"measurement": "IC50", "setting": "MKN-45", "value": 16, "unit": "µM"}, {"measurement": "IC50", "setting": "[15]", "value": 21.8, "unit": "µM"}, {"measurement": "IC50", "setting": "MOLT-4", "value": 8.1, "unit": "µM"}, {"measurement": "viability at 12.5 µM", "setting": "T-24 [16]", "value": 36.9, "unit": "%"}]}
{"molecule": "C/C=C(\\C)C(=O)O[C@@H]1[C@@H](O)[C@@H]2O[C@H]3[C@H](O[C@@H](CCCCC)CCCCCCC(=O)CCC(=O)OC[C@@H](O2)[C@H]1OC(=O)/C=C/c1ccccc1)O[C@H](C)[C@H](OC(C)=O)[C@@H]3O", "values": [{"measurement": "IC50", "setting": "MCF-10A [17]", "value": 0.0054, "unit": "µM"}, {"measurement": "IC50 at 3 days", "setting": "[18]", "value": 0.0168, "unit": "µM"}]}
